The source made the active and inactive calls.
Key:
Phosphomannomutase 2 = Phosphomannomutase 2 (Homo sapiens, UniProt O15305); assay: Counter screen SAR assay for PMM2 inhibitors via a fluorescence intensity assay. [Related pubchem assays (depositor defined):AID1545, AID1574]
[1] = biological target: T1, Heat shock factor protein 1 (Mus musculus, UniProt P38532); assay: HSF1 potentiators in luciferase reporter cells, confirmation, cell-based, NIH3T3, luminescence, dose retest (AID 435004); format: functional;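 also: stress induced by proteasome inhibitor MG132 added 30 min after compound; luciferase reporter driven by HSF1 response element in NIH3T3 cells; actives raise luminescence as potentiators of the MG132 stress response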
T1 sequence (P38532 whole entry): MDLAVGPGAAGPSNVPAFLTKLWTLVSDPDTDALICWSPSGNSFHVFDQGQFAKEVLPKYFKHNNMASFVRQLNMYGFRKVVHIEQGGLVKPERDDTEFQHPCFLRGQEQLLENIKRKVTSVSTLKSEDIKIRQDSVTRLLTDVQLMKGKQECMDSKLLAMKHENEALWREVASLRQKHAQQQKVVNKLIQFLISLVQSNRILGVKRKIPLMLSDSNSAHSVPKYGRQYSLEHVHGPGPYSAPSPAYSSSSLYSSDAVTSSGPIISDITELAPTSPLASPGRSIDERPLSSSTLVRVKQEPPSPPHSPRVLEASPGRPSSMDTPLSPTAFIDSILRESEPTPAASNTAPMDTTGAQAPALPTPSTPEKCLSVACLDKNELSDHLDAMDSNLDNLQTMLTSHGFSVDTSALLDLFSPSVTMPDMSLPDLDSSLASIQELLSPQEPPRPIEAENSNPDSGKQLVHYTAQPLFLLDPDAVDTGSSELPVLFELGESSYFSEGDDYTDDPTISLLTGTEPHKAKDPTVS

X-box-binding protein 1 = X-box-binding protein 1 (Homo sapiens, UniProt P17861); format: functional, Cricetulus griseus;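 also: confirmatory dose-response counter-screen serving a CHOP assay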
Paired box protein Pax-8 = Paired box protein Pax-8 (Homo sapiens, UniProt Q06710); assay: inhibitors of PAX8-driven TPO luciferase reporter, dose response, RMG-I cells, cherry-pick (AID 687027); format: functional, cell-based;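 also: luciferase reporter driven by Pax8 target thyroperoxidase promoter measured by SteadyGlo luminescence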
INS1 = assay: beta cell apoptosis inhibitors, cytokine rescue, dose response, luminescence, retest (AID 449756); format: functional, cell-based; details: Rattus norvegicus;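 also: cell death triggered by IL-1 beta plus TNF-alpha plus IFN-gamma mixture; protective hits raise ATP signal compared with cytokine alone wells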
[2] = biological target: T2, Kappa-type opioid receptor (Homo sapiens, UniProt P41145); format: functional
[3] = biological target: T3, Delta-type opioid receptor (Homo sapiens, UniProt P41143); assay: HTS Image-Based Screen for Antagonists of the DOR Receptor. [Related pubchem assays (depositor defined):AID1777, AID1785, AID1786, AID2133]; format: functional
Mu-type opioid receptor = Mu-type opioid receptor (Homo sapiens, UniProt P35372); assay: HTS Image-Based Screen for Agonists of the MOR Receptor. [Related pubchem assays (depositor defined):AID1777, AID1785, AID1786, AID2133]; format: functional;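 also: imaging of beta-arrestin GFP recruitment into spots after receptor activation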
Beta-galactosidase = Beta-galactosidase (Escherichia coli, UniProt Q8VNN2); format: functional
[4] = biological target: T3, Delta-type opioid receptor; assay: HTS Image-Based Screen for Agonists of the DOR Receptor. [Related pubchem assays (depositor defined):AID1777, AID1786, AID2133]; format: functional
[5] = biological target: T2, Kappa-type opioid receptor; format: functional; remark: listed apart in the source
[6] = biological target: T4, Tyrosine-protein phosphatase non-receptor type 22 (Homo sapiens, UniProt Q9Y2R2); format: functional
T4 sequence (Q9Y2R2 whole entry): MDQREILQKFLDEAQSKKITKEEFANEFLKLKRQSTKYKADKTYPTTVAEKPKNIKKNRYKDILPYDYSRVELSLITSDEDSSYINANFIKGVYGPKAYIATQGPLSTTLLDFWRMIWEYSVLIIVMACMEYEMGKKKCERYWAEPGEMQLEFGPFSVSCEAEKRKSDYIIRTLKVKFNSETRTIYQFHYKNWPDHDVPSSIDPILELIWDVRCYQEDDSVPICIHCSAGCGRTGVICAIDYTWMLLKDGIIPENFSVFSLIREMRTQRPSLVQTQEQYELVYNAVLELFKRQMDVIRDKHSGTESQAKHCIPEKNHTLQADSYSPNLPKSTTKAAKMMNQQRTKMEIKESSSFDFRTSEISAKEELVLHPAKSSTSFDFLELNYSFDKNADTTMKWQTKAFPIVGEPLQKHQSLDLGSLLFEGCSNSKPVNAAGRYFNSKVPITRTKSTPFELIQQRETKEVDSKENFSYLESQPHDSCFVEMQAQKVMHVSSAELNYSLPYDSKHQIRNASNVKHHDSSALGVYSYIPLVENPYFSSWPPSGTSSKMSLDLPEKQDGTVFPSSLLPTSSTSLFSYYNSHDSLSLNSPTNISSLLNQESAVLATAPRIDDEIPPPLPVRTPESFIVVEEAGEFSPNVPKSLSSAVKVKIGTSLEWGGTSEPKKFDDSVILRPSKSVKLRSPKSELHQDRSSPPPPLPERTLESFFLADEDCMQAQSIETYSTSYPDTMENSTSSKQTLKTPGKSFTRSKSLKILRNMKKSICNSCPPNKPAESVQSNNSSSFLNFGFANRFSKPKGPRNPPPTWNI

[7] = biological target: T4, Tyrosine-protein phosphatase non-receptor type 22; format: functional; remark: listed apart in the source
[8] = biological target: T5, Tyrosine-protein phosphatase non-receptor type 7 (Homo sapiens, UniProt P35236); format: functional
T5 sequence (P35236 whole entry): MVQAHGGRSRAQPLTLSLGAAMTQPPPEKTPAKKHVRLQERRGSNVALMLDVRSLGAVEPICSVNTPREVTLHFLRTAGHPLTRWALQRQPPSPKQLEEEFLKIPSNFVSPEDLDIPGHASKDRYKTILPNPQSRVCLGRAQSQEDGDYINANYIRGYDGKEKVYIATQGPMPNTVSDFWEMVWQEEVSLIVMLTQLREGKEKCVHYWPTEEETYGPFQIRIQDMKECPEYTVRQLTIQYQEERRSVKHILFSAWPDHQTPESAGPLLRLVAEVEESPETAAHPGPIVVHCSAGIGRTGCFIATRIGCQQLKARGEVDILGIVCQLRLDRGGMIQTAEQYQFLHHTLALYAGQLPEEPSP

Hexokinase-1 = Hexokinase-1 (Homo sapiens, UniProt P19367); assay: hexokinase 1 activators, dose response, selectivity assay for HKDC1 activator project, biochemical (AID 504762); format: functional
Hexokinase HKDC1 = biological target: T6, Hexokinase HKDC1 (Homo sapiens, UniProt Q2TB90); assay: HKDC1 hexokinase activators, dose response, biochemical, W721R variant (AID 504730); format: functional
T6 sequence (Q2TB90 whole entry): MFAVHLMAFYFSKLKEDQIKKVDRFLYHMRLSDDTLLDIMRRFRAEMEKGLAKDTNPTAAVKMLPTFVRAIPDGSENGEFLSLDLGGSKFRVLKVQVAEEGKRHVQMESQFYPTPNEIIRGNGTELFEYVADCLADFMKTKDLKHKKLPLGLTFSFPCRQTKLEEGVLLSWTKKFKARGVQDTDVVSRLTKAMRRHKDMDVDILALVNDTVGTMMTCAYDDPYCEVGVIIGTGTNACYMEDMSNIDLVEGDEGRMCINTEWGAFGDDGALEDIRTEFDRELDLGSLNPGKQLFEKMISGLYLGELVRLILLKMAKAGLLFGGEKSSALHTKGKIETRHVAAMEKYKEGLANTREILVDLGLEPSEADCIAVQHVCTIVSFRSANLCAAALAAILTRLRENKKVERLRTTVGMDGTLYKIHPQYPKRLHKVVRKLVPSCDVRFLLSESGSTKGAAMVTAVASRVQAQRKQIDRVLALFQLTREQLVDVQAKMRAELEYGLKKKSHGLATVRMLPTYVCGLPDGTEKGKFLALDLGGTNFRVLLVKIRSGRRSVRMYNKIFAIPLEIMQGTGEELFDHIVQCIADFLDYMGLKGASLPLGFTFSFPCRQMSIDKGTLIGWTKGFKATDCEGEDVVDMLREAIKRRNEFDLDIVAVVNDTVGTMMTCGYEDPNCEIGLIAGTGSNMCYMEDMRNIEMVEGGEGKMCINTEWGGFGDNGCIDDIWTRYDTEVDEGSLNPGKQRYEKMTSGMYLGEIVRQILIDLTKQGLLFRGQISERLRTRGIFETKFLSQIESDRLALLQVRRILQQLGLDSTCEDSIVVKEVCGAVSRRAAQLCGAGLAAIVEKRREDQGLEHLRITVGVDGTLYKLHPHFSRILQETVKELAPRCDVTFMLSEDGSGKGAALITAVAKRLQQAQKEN

Nonstructural protein 1 = Nonstructural protein 1 (Influenza A virus, UniProt Q194T2); format: functional, Influenza A virus (A/California/07/2009(H1N1))
[9] = biological target: T7, Mannose-6-phosphate isomerase (Homo sapiens, UniProt P34949); assay: human PMI inhibitors, high substrate, primary screen, biochemical, fluorescence intensity, high mannose 6-phosphate (AID 1220)
T7 sequence (P34949 whole entry): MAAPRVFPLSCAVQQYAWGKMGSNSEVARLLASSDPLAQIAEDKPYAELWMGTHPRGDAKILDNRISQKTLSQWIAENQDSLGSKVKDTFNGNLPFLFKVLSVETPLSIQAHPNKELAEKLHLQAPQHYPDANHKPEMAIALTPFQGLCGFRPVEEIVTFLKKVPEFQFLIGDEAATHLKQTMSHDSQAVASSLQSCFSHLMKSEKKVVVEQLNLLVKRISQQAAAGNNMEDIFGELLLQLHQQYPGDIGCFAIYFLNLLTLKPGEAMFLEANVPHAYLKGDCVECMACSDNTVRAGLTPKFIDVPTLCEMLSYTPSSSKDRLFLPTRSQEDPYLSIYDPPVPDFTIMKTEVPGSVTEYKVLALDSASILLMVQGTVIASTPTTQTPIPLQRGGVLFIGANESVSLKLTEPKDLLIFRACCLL

SUMO-activating enzyme = SUMO-activating enzyme (Homo sapiens, UniProt Q9UBT2); assay: SUMOylation inhibitor hit validation, confirmation, SUMOylation inhibitor project, biochemical, AlphaScreen (AID 2018); format: functional
Cytochrome P450 2D6 = Cytochrome P450 2D6 (Homo sapiens, UniProt P10635);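 also: CYP2D6 member of a cytochrome P450 panel assay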
CHO-K1 = assay: (§1) Counterscreen for antagonists of the orexin 1 receptor (OX1R; HCRTR1): Homogeneous time resolved fluorescence (HTRF)-based cell-based dose response assay to identify antagonists of the parental CHO-K1 cell line. [Related pubchem assays (depositor defined):AID434989, AID435008, AID463079, AID485270, AID492963, AID492964, AID492965, AID493232, AID504699, AID504701]; format: functional; details: Cricetulus griseus
[10] = as §1, with “Fluorescence-based” for “Homogeneous time resolved fluorescence (HTRF)-based”, “cell-based high throughput” for “cell-based”, “CHO” for “CHO-K1”; format: functional
[11] = inhibitors of intracellular T. cruzi replication, confirmation, NIH3T3 host cells, beta-gal luminescence (AID 2044); format: functional, cell-based;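 also: intracellular parasites grown in NIH/3T3 mouse fibroblasts as host cells; luminescent beta-galactosidase reporter signal from transgenic T. cruzi replicating inside host cells; inhibitors lower the luminescence signal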
[12] = biological target: T8, Orexin/Hypocretin receptor type 1 (Homo sapiens, UniProt O43613); assay: Homogeneous Time Resolved Fluorescence (HTRF)-based cell-based high throughput dose response assay for antagonists of the orexin 1 receptor (OX1R; HCRTR1). [Related pubchem assays (depositor defined):AID434989, AID435008, AID463079, AID485270, AID492963, AID492964, AID492965, AID493232, AID504717, AID504718]; format: functional
T8 sequence (O43613 whole entry): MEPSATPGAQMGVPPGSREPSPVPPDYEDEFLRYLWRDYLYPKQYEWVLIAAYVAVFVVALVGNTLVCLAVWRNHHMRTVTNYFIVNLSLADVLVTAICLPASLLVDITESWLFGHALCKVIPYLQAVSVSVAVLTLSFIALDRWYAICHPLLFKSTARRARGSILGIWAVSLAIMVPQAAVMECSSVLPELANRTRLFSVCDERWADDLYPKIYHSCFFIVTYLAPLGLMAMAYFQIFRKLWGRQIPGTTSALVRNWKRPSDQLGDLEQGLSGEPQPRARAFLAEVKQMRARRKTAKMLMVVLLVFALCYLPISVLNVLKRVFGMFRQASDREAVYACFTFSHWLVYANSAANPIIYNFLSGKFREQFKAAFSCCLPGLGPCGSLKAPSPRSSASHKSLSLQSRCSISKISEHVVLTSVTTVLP

[13] = biological target: T8, Orexin/Hypocretin receptor type 1; assay: Fluorescence-based cell-based high throughput dose response assay for antagonists of the orexin 1 receptor (OX1R; HCRTR1). [Related pubchem assays (depositor defined):AID434989, AID435008, AID463079, AID485270, AID492963, AID492964, AID492965, AID493232, AID504717, AID504718]; format: functional

T2 sequence (P41145 whole entry): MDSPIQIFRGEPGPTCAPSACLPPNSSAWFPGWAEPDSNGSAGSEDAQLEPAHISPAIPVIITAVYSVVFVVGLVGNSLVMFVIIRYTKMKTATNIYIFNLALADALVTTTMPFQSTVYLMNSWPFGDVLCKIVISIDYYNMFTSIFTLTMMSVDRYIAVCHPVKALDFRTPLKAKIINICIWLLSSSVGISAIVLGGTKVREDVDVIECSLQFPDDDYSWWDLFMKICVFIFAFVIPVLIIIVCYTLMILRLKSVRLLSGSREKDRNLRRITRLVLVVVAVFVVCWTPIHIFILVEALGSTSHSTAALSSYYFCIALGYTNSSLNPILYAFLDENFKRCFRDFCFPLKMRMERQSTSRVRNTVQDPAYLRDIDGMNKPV
Hexokinase-1, sequence (P19367 whole entry): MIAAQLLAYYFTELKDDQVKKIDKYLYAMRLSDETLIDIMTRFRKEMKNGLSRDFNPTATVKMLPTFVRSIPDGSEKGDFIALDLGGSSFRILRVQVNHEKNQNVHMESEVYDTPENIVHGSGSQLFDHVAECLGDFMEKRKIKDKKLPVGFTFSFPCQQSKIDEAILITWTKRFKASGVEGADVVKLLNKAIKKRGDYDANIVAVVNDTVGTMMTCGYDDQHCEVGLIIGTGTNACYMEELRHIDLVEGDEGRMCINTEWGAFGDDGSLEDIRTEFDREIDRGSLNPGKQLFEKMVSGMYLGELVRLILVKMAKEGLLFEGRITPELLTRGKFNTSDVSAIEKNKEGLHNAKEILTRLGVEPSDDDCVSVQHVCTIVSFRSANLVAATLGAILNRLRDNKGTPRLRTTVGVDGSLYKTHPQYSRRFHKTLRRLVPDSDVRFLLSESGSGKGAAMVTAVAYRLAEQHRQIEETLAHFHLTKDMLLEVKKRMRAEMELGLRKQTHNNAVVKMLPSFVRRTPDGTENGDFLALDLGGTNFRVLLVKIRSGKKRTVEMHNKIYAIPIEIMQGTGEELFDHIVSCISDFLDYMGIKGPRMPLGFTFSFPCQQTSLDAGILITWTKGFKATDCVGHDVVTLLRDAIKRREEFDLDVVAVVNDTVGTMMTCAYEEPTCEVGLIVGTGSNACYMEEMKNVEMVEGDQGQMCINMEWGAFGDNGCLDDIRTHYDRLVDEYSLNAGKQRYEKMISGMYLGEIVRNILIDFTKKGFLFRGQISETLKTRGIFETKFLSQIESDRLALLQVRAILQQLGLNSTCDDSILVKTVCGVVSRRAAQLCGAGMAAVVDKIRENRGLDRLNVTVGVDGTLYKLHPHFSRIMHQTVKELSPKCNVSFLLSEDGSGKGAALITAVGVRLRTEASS
T3 sequence (P41143 whole entry): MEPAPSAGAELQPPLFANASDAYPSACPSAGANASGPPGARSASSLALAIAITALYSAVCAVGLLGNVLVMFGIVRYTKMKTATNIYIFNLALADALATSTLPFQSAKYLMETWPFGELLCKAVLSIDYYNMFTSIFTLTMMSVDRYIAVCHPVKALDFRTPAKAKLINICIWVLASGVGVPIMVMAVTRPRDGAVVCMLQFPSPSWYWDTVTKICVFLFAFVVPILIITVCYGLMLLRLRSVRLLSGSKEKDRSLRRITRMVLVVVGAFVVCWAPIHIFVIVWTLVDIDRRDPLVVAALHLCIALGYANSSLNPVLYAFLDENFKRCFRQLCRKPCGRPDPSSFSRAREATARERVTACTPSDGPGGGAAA
Beta-galactosidase, sequence (Q8VNN2 whole entry): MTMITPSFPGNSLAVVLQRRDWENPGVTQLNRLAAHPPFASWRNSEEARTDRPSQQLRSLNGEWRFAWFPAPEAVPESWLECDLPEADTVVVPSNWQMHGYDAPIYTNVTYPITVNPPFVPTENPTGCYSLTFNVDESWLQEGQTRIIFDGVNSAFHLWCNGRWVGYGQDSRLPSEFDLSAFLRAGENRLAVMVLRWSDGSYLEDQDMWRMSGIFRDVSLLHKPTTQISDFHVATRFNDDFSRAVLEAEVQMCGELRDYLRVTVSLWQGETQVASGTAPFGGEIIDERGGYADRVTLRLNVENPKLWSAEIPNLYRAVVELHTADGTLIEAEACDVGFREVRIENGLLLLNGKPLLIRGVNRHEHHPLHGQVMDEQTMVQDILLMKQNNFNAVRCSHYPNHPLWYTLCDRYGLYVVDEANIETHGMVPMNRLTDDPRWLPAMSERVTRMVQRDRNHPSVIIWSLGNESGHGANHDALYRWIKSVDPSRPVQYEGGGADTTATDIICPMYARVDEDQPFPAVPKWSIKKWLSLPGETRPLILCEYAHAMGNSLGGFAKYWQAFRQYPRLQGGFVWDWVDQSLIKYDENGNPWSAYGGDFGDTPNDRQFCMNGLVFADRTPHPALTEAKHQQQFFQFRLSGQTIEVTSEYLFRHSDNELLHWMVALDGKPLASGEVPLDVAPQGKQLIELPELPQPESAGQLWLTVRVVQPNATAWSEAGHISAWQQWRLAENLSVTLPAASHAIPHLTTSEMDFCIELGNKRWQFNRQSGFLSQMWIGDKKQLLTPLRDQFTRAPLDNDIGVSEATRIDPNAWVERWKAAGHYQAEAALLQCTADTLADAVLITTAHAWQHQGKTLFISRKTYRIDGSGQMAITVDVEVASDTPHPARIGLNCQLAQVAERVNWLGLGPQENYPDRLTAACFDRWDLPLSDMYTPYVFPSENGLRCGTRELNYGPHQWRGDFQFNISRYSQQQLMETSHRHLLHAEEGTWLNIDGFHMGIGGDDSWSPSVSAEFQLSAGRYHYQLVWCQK
Cytochrome P450 2D6, sequence (P10635 whole entry): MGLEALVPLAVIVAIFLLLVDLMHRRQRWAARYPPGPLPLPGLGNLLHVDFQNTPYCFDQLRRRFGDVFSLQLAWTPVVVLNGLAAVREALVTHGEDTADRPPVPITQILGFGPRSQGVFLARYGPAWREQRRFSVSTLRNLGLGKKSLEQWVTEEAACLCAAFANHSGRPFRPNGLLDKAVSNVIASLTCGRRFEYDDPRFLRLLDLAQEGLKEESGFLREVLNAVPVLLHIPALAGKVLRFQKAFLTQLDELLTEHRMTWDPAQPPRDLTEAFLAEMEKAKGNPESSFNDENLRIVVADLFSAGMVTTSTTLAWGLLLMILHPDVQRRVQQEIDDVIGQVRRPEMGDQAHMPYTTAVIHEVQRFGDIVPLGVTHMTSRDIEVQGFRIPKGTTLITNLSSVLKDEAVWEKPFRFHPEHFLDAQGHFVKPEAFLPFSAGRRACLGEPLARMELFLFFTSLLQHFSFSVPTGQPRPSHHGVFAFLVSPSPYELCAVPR
Mu-type opioid receptor, sequence (P35372 whole entry): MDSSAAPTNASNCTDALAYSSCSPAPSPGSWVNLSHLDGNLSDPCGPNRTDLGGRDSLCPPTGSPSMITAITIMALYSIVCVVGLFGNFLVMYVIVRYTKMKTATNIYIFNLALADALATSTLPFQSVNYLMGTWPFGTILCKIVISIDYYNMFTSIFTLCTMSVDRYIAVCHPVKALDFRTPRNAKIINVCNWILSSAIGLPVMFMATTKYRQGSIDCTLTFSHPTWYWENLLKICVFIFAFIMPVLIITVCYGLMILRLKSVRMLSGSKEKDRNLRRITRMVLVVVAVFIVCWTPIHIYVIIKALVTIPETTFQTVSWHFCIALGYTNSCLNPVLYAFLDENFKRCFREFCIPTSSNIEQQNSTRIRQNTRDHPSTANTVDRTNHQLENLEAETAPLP
Nonstructural protein 1, sequence (Q194T2 whole entry): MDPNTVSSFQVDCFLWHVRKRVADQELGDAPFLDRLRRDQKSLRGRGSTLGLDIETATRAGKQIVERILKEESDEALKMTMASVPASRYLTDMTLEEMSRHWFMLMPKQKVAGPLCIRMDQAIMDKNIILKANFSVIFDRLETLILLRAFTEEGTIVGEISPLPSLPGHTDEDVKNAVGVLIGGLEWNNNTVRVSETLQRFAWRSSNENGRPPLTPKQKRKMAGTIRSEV
X-box-binding protein 1, sequence (P17861 whole entry): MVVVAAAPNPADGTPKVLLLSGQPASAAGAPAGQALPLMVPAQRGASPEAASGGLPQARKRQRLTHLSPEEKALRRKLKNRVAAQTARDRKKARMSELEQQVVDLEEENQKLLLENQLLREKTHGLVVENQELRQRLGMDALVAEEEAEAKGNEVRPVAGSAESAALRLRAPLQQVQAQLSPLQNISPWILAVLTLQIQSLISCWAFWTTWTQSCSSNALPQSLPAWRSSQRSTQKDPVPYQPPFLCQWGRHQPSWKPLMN
Phosphomannomutase 2, sequence (O15305 whole entry): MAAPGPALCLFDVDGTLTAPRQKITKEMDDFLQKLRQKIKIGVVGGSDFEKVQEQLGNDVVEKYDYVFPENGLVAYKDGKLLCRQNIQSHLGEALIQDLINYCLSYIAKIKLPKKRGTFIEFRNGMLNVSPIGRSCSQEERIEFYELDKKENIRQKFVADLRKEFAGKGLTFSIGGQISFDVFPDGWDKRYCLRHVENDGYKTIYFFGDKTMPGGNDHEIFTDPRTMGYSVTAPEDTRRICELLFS
Paired box protein Pax-8, sequence (Q06710 whole entry): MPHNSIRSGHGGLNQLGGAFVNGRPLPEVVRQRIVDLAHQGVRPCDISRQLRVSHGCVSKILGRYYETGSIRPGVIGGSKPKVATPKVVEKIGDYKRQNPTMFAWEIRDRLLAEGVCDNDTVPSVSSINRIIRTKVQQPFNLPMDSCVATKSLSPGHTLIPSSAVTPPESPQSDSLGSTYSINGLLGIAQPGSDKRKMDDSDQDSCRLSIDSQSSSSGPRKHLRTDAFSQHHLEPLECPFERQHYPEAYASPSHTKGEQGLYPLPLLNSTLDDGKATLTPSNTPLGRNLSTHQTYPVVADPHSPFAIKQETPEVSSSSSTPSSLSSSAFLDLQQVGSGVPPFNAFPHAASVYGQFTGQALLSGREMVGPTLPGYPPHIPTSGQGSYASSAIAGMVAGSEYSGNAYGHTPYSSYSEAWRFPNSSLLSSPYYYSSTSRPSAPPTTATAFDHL

SMILES: CSc1nc(-c2ccccc2)nc(C(Cl)Cl)n1
- IC50 (Phosphomannomutase 2): > 100 µM (inactive)
- EC50 [1]: 2.7 µM (active)
- Absolute IC50 (XBP1) (X-box-binding protein 1): 10 µM
- AC50 (Paired box protein Pax-8): 2.26 µM (active)
- AC50 (INS1): 3.69 µM (active)

SMILES: COc1ccc(N2CCN(CCCNC(=O)C(=O)c3c(C)n(C)c4ccccc34)CC2)cc1
- IC50 [2]: 18.3 µM (active)
- IC50 [3]: > 32 µM (inactive)
- EC50 (Mu-type opioid receptor): > 32 µM (inactive)
- EC50 (Beta-galactosidase): > 31.5 µM (inactive)
- EC50 [4]: > 32 µM (inactive)
- IC50 [5]: 6.16 µM

SMILES: O=C(Nc1nccs1)c1ccc(S(=O)(=O)NCc2cccs2)cc1
- IC50 [6]: > 79.4 µM (inactive)
- IC50 [7]: > 79.4 µM (inactive)
- IC50 [8]: > 79.4 µM (inactive)

SMILES: COc1ccc(-c2nc3c(c(=O)n(C)c(=O)n3C)n2CC2CC(c3ccccc3)=NO2)cc1OC (stereo not drawn)
- EC50 (Hexokinase-1): 35.1 µM (inactive)
- EC50 (Hexokinase HKDC1): 33.4 µM (inactive)

SMILES: O=C(NC(=S)NNC(=O)c1cnccn1)c1ccc(F)cc1
- IC50 (Nonstructural protein 1): 2.95 µM (active)
- EC50 (Hexokinase-1): > 80 µM (inactive)
- AC50 (INS1): 0.889 µM (active)
- EC50 (Hexokinase HKDC1): 14.5 µM (active)

SMILES: C/C(=N\NC(=O)CNc1cccc2ccccc12)c1ccccc1
- IC50 [9]: > 50 µM (not active)
- IC50 (SUMO-activating enzyme): > 100 µM (inactive)

SMILES: NC(=S)N/N=C/c1ccccc1OCc1cccc(Cl)c1
- AC50 (Cytochrome P450 2D6): inconclusive
- IC50 (CHO-K1): > 66.2 µM (inactive)
- IC50 [10]: > 49.7 µM (inactive)
- EC50 [11]: 0.323 µM (active)
- IC50 [12]: 2.71 µM (active)
- IC50 [13]: 7.74 µM (active)
